Columns and labels:
[1] = Hydrolytic stability of qABPs in media (Cy5 fluorescence over time); format: physicochemical; conditions: cell culture media (10% FBS), 24 h incubation
Method: Supplementary Figure 1. E-2B-0B-2Quenching effect and stability of qABP 10. (A) The fluorescence for each probe (10 µM) was measured at Ex/Em: 640/670 nm. (B) The stability of qABP 10 in PBS and different cell culture media (supplemented with 10% FBS) was measured by monitoring the production of Cy5 fluorescence signal over time.
11 CO2- In-gel fluorescence: Cy5
Supplementary Figure 2. (A) Chemical structure of compound 11. (B) hGzmB labeling assay with 11. Recombinant human active GzmB (50 nM) was incubated with 8 or 11 (500 nM) for 1 h.
Protein samples were analyzed by SDS-PAGE and in-gel fluorescence scanning for Cy5 signal.
(1 picture or pasted object on this page, not shown here)
PBS RIPA Myelocult 17 In-gel fluorescence:
Supplementary Figure 8. Activity-based GzmA profiling. (A) Left: Dose-dependent labeling of GzmA with 16 and 17 in NK-92 cell lysates. Middle, Right: GzmA selective labeling in different cell lysates with 17 (Middle) and 16 (Right) (50 nM, 1 h, 37 °C). Briefly, cell lysates were prepared with RIPA lysis buffer, and 20 µg of proteins were incubated with 50 nM of 16 or 17 for 1 h at 37 °C and analyzed by SDS-PAGE. […]
dependent in situ labeling of GzmA in NK-92 cells with 14-17 (2 h, 37 °C). […] After denaturing with 4X SDS-reducing buffer, 20 µg of proteins were analyzed by SDS-PAGE and in-gel fluorescence scanning for Cy5 signal. […]

[2] = test system: GzmB activity in 4T1 tumors; format: in vivo, mouse
Method: Figure 5. In vivo imaging of GzmB activity in mouse tumor models. (A) Schematic illustration of the timeline of immunotherapy and real-time NIRF-imaging. (B) Measurement of tumor growth comparing immunotherapy (ICB combination)-treated vs. untreated mice. Data points are shown as mean with SD. (C) Whole animal 2D fluorescence images of immunotherapy-treated mice obtained after 2, 4, 8 and 24 h post-injection at Ex/Em: 640/680 nm. […] (D) Quantification of in vivo NIRF signals in the tumors. […] (F) Quantification of ex vivo NIRF signals in the organs (normalized to spleen). […] (G) Immunoblotting analysis of GzmB expression in tumor homogenates. Briefly, pieces of tumors were transferred to a flask containing 1 mL RIPA lysis buffer on ice and constantly grinded for 2 min. Homogenates were collected by centrifugation and 20 μg of proteins were analyzed by SDS-PAGE and immunoblotting. (H) Representative confocal microscopy images of tumor sections stained with DAPI (blue) and CD8α (green)/GzmB (yellow) antibodies and Cy5 (red) detection. (I) Fraction (%) of CD8+ cells in the tumors analyzed by flow cytometry. (J) Mean fluorescence intensity (MFI) of Cy5 signals determined by flow cytometry after dissociated tumors were treated with 10 (5 μM) for 2 h at 37 °C.
3-5 mice/group. For all studies, mice were monitored by daily observation and serial tumor measurements and body weights.
Mice were treated with 20 mg/kg BEC i.v., 10 mg/kg anti-PD1 i.p., 5 mg/kg anti-CTLA4 i.p. or a combination of 10 mg/kg anti-PD-1 and 5 mg/kg anti-CTLA4. All the treatments were administered into living mice bearing 4T1 tumor every three days for three times (q3dx3). Dosing was administered at 0.01 ml/g body weight. On day 9 post-treatment, the mice were injected with 2 nmol/g GzmB qABP i.v., followed by fluorescence imaging at 2, 4, 8, and 24 h. Following the last imaging time point, mice were euthanized, and tissues were collected for ex vivo imaging.
E. In vivo and ex vivo fluorescence imaging (FLI)
All fluorescence imaging (FLI) were performed using Xenogen IVIS Spectrum (Revvity Health Sciences, Inc., Hopkinton, Massachusetts), which was previously owned by PerkinElmer. Prior to in vivo or ex vivo FLI, quality control of the IVIS system was performed with XFM-2X fluorescent phantom mouse (Revvity Health Sciences, Inc., Hopkinton, Massachusetts). The total radiant efficiency of AF680 phantom was 1.44 x 109 ± 5.7 x 107 at 40% threshold for the entire study.
Both in vivo and ex vivo FLI of mice including dye phantom was performed with Ex/Em: 640/680 nm. The wavelength difference between excitation and emission was large enough to prevent signal contamination by mixing. The maximum exposure time was fixed at 120 seconds to avoid background noise. In vivo imaging used 8 binning, 2 f-stop, and 1.5 cm sample height, whereas ex vivo imaging used 8 binning, 2–4 f-stop, and 0.5 cm sample height. The quantified data are presented as radiant efficiency or normalized radiant efficiency by area. […]
Fixed/Permeabilized […]
cells were resuspended 100 µL 1x intracellular staining perm wash buffer and incubated with FITC-conjugated CD8 antibody (BioLegend #100706) at 0 °C for 1 h. After centrifugation, cell pellets were washed with 1x intracellular staining perm wash buffer (twice) and resuspended in the appropriate amount of cell staining buffer (BioLegend # 420201) and analyzed with flow […]

CC[C@H](C)[C@H](NC(=O)CCCCCN1/C(=C/C=C/C=C/C2=[N+](CC)c3ccc(S(=O)(=O)O)cc3C2(C)C)C(C)(C)c2cc(S(=O)(=O)O)ccc21)C(=O)N[C@@H](CCC(=O)O)C(=O)N1CCC[C@H]1C(=O)NC(CS(=O)(=O)O)P(=O)(Oc1ccc(CCNC(=O)C2CCN(S(=O)(=O)c3ccccc3-c3c4ccc(=[N+]5CCc6ccccc65)cc-4oc4cc(N5CCc6ccccc65)ccc34)CC2)cc1)c1ccccc1 (stereo partly drawn) [Compound 10, Cy5-IEPCya^PhP-QSY21]
hydrolyzed product [1]: less than 50% | in vivo NIRF signal at 2 h, mouse #61 (brightest) ([2]; 12.5 nmol/100 μL i.v., 2 h post-injection, ICB combination-treated mouse): 7.26x10^9 p s^−1 cm^−2 sr^−1 | time post-injection of brightest NIRF signal within tumors ([2]; 50 nmol i.v., imaged at 2, 4, 8 and 24 h): 2 h | tumor-to-background ratio (TBR), ex vivo, normalized to spleen, mouse #57 ([2]; 50 nmol i.v., organs harvested 24 h post-injection): 15.18 | in vivo fluorescence signal in tumor at 2 h, mouse #57 (highest) ([2]; 50 nmol/100 μL i.v., 2 h post-injection, ICB combination-treated mouse): 4.02x10^10 p s^−1 cm^−2 sr^−1 | clearance route of excess probe ([2]; second highest signals in bladder (2 h in vivo) and kidneys (24 h ex vivo)): cleared through the renal pathway
